Source: ChEMBL document CHEMBL3885861, “Open TG-GATES”

Species on record: Rattus norvegicus
Experiment: Open TG-GATES - Regimen: Daily Repeat
Assay type: toxicity, organism-based, Sprague-Dawley
Set-up: regimen Daily Repeat, gender Male, age 6 weeks
Settings: in vivo, po, 100 mg/kg, route gavage, dose level Low; for APTT / Bas / Eos / Fbg / Hb / Ht / Lym / MCH / MCHC / MCV / Mono / Neu / PT / Plat / RBC / Ret / WBC: tissue Blood; for KIDNEY_L / KIDNEY_R / KIDNEY_TOTAL: tissue Kidney; for LIVER: tissue Liver; for A/G / ALP / ALT / AST / BUN / CRE / Ca / Cl / DBIL / GLC / IP / K / LDH / Na / PL / RALB / TBIL / TC / TG / TP / gamma-GTP: tissue Plasma

Compound `CCOc1ccc(NC(=O)CC(C)O)cc1` (configuration not stated) [BUCETIN] has a TERMINAL_BW (72 h, time 3 day) of 249.8 g, an APTT (72 h, time 3 day) of 17.5 s and a Bas (72 h, time 3 day) of 0%. For the same compound, the Eos (72 h, time 3 day) was 0.8%, the Fbg (72 h, time 3 day) was 309.6 mg/dL and the Hb (72 h, time 3 day) was 13.8 g/dL. It also gave a Ht (72 h, time 3 day) of 41.5%, a Lym (72 h, time 3 day) of 76.4% and an MCH (72 h, time 3 day) of 21.2 pg. It also gave an MCHC (72 h, time 3 day) of 33.2%, an MCV (72 h, time 3 day) of 63.9 fL and a Mono (72 h, time 3 day) of 3.4%. It also gave a Neu (72 h, time 3 day) of 18.8%, a PT (72 h, time 3 day) of 14.1 s and a Plat (72 h, time 3 day) of 126.2 x10_4/uL. For the same compound, the RBC (72 h, time 3 day) was 650.6 x10_4/ul, the Ret (72 h, time 3 day) was 6.9% and the WBC (72 h, time 3 day) was 79.2 x10_2/uL. It also gave a KIDNEY_L (72 h, time 3 day) of 1 g, a KIDNEY_R (72 h, time 3 day) of 1.1 g and a KIDNEY_TOTAL (72 h, time 3 day) of 2.1 g. For the same compound, the LIVER (72 h, time 3 day) was 12.1 g, the A/G (72 h, time 3 day) was 0.9 and the ALP (72 h, time 3 day) was 1621.2 IU/L. The ALT (72 h, time 3 day) was 35.2 IU/L, the AST (72 h, time 3 day) was 62.4 IU/L and the BUN (72 h, time 3 day) was 14.4 mg/dL. For the same compound, the CRE (72 h, time 3 day) was 0.2 mg/dL, the Ca (72 h, time 3 day) was 11 mg/dL and the Cl (72 h, time 3 day) was 105.6 meq/L. For the same compound, the DBIL (72 h, time 3 day) was 0.02 mg/dL, the GLC (72 h, time 3 day) was 188.4 mg/dL and the IP (72 h, time 3 day) was 7.6 mg/dL. For the same compound, the K (72 h, time 3 day) was 4.2 meq/L, the LDH (72 h, time 3 day) was 76.6 IU/L and the Na (72 h, time 3 day) was 143 meq/L. It also gave a PL (72 h, time 3 day) of 163.8 mg/dL, an RALB (72 h, time 3 day) of 2.7 g/dL and a TBIL (72 h, time 3 day) of 0.044 mg/dL. The TC (72 h, time 3 day) was 82 mg/dL, the TG (72 h, time 3 day) was 116.4 mg/dL and the TP (72 h, time 3 day) was 5.9 g/dL. It also gave a gamma-GTP (72 h, time 3 day) of 1 IU/L, a TERMINAL_BW ([…], time 7 day) of 303 g and a TERMINAL_BW ([…], time 14 day) of 338.2 g. It also gave a TERMINAL_BW ([…], time 28 day) of 405.9 g, an APTT ([…], time 7 day) of 17.7 s and a Bas ([…], time 7 day) of 0%. For the same compound, the Eos ([…], time 7 day) was 0.8%, the Fbg ([…], time 7 day) was 276.6 mg/dL and the Hb ([…], time 7 day) was 13.4 g/dL. The Ht ([…], time 7 day) was 40.1%, the Lym ([…], time 7 day) was 77.8% and the MCH ([…], time 7 day) was 20.5 pg. For the same compound, the MCHC ([…], time 7 day) was 33.5%, the MCV ([…], time 7 day) was 61.2 fL and the Mono ([…], time 7 day) was 2.8%. For the same compound, the Neu ([…], time 7 day) was 17.6%, the PT ([…], time 7 day) was 14 s and the Plat ([…], time 7 day) was 121.8 x10_4/uL. It also gave an RBC ([…], time 7 day) of 655.4 x10_4/ul, a Ret ([…], time 7 day) of 5.8% and a WBC ([…], time 7 day) of 116.6 x10_2/uL. It also gave an APTT ([…], time 14 day) of 19.2 s, a Bas ([…], time 14 day) of 0% and an Eos ([…], time 14 day) of 0.8%. The Fbg ([…], time 14 day) was 287.8 mg/dL, the Hb ([…], time 14 day) was 14.6 g/dL and the Ht ([…], time 14 day) was 43.2%. It also gave a Lym ([…], time 14 day) of 74.6%, an MCH ([…], time 14 day) of 20.1 pg and an MCHC ([…], time 14 day) of 33.9%. For the same compound, the MCV ([…], time 14 day) was 59.3 fL, the Mono ([…], time 14 day) was 2.4% and the Neu ([…], time 14 day) was 21.4%. It also gave a PT ([…], time 14 day) of 13.9 s, a Plat ([…], time 14 day) of 116.5 x10_4/uL and an RBC ([…], time 14 day) of 729.2 x10_4/ul. For the same compound, the Ret ([…], time 14 day) was 4.1%, the WBC ([…], time 14 day) was 86.9 x10_2/uL and the APTT ([…], time 28 day) was 17.9 s. It also gave a Bas ([…], time 28 day) of 0.2%, an Eos ([…], time 28 day) of 1% and a Fbg ([…], time 28 day) of 280.4 mg/dL. For the same compound, the Hb ([…], time 28 day) was 15.6 g/dL, the Ht ([…], time 28 day) was 44.9% and the Lym ([…], time 28 day) was 81%. It also gave an MCH ([…], time 28 day) of 19.5 pg, an MCHC ([…], time 28 day) of 34.9% and an MCV ([…], time 28 day) of 55.9 fL. For the same compound, the Mono ([…], time 28 day) was 2%, the Neu ([…], time 28 day) was 15% and the PT ([…], time 28 day) was 14.1 s. The Plat ([…], time 28 day) was 114.4 x10_4/uL, the RBC ([…], time 28 day) was 802.8 x10_4/ul and the Ret ([…], time 28 day) was 2.5%. It also gave a WBC ([…], time 28 day) of 132 x10_2/uL, a KIDNEY_L ([…], time 7 day) of 1.3 g and a KIDNEY_R ([…], time 7 day) of 1.3 g. The KIDNEY_TOTAL ([…], time 7 day) was 2.5 g, the KIDNEY_L ([…], time 14 day) was 1.3 g and the KIDNEY_R ([…], time 14 day) was 1.2 g. For the same compound, the KIDNEY_TOTAL ([…], time 14 day) was 2.5 g, the KIDNEY_L ([…], time 28 day) was 1.4 g and the KIDNEY_R ([…], time 28 day) was 1.4 g. The KIDNEY_TOTAL ([…], time 28 day) was 2.9 g, the LIVER ([…], time 7 day) was 14.8 g and the LIVER ([…], time 14 day) was 14.9 g. For the same compound, the LIVER ([…], time 28 day) was 16.3 g, the A/G ([…], time 7 day) was 0.8 and the ALP ([…], time 7 day) was 1437.2 IU/L. For the same compound, the ALT ([…], time 7 day) was 42.8 IU/L, the AST ([…], time 7 day) was 69.6 IU/L and the BUN ([…], time 7 day) was 15.8 mg/dL. For the same compound, the CRE ([…], time 7 day) was 0.2 mg/dL, the Ca ([…], time 7 day) was 11 mg/dL and the Cl ([…], time 7 day) was 105 meq/L. It also gave a DBIL ([…], time 7 day) of 0.022 mg/dL, a GLC ([…], time 7 day) of 188.4 mg/dL and an IP ([…], time 7 day) of 7.3 mg/dL. The K ([…], time 7 day) was 4.2 meq/L, the LDH ([…], time 7 day) was 103.8 IU/L and the Na ([…], time 7 day) was 144.4 meq/L. The PL ([…], time 7 day) was 172.8 mg/dL, the RALB ([…], time 7 day) was 2.7 g/dL and the TBIL ([…], time 7 day) was 0.04 mg/dL. It also gave a TC ([…], time 7 day) of 80.6 mg/dL, a TG ([…], time 7 day) of 143 mg/dL and a TP ([…], time 7 day) of 6 g/dL. For the same compound, the gamma-GTP ([…], time 7 day) was 1.2 IU/L, the A/G ([…], time 14 day) was 0.8 and the ALP ([…], time 14 day) was 1590.2 IU/L. The ALT ([…], time 14 day) was 34.4 IU/L, the AST ([…], time 14 day) was 62.6 IU/L and the BUN ([…], time 14 day) was 14.6 mg/dL. The CRE ([…], time 14 day) was 0.2 mg/dL, the Ca ([…], time 14 day) was 11.1 mg/dL and the Cl ([…], time 14 day) was 105.8 meq/L. For the same compound, the DBIL ([…], time 14 day) was 0.02 mg/dL, the GLC ([…], time 14 day) was 191 mg/dL and the IP ([…], time 14 day) was 7.4 mg/dL. It also gave a K ([…], time 14 day) of 3.8 meq/L, an LDH ([…], time 14 day) of 77.4 IU/L and a Na ([…], time 14 day) of 145.2 meq/L. The PL ([…], time 14 day) was 159.2 mg/dL, the RALB ([…], time 14 day) was 2.8 g/dL and the TBIL ([…], time 14 day) was 0.06 mg/dL. For the same compound, the TC ([…], time 14 day) was 71.2 mg/dL, the TG ([…], time 14 day) was 145 mg/dL and the TP ([…], time 14 day) was 6.1 g/dL. The gamma-GTP ([…], time 14 day) was 1.2 IU/L, the A/G ([…], time 28 day) was 0.8 and the ALP ([…], time 28 day) was 1115.2 IU/L. The ALT ([…], time 28 day) was 32.6 IU/L, the AST ([…], time 28 day) was 64.6 IU/L and the BUN ([…], time 28 day) was 15.8 mg/dL. It also gave a CRE ([…], time 28 day) of 0.3 mg/dL, a Ca ([…], time 28 day) of 11 mg/dL and a Cl ([…], time 28 day) of 104.8 meq/L. The DBIL ([…], time 28 day) was 0.022 mg/dL, the GLC ([…], time 28 day) was 188.6 mg/dL and the IP ([…], time 28 day) was 5.9 mg/dL. It also gave a K ([…], time 28 day) of 3.9 meq/L, an LDH ([…], time 28 day) of 82.8 IU/L and a Na ([…], time 28 day) of 145.2 meq/L. It also gave a PL ([…], time 28 day) of 155 mg/dL, an RALB ([…], time 28 day) of 2.9 g/dL and a TBIL ([…], time 28 day) of 0.06 mg/dL. The TC ([…], time 28 day) was 70.4 mg/dL, the TG ([…], time 28 day) was 145 mg/dL and the TP ([…], time 28 day) was 6.4 g/dL. It also gave a gamma-GTP ([…], time 28 day) of 1.4 IU/L.
